What was measured:
[1] = system: Puccinia recondita f. sp. tritici; test: Fungicidal activity against Puccinia recondita f. sp. tritici / wheat / leaf disc preventative (brown rust); assay type: in vivo; conditions: foliar, 200 ppm in the applied formulation, wheat leaf segments cv. Kanzler, preventative (inoculated 1 day after application), assessed 7 to 9 days after application, read-out: disease control compared to untreated control leaf disks
Method: (§1) Leaf disks or leaf segments of various plant species are cut from plants grown in a greenhouse. The cut leaf disks or segments are placed in multiwell plates (24-well format) onto water agar. The leaf disks are sprayed with a test solution before (preventative) or after (curative) inoculation. Compounds to be tested are prepared as DMSO solutions (max. 10 mg/ml) which are diluted to the appropriate concentration with 0.025% Tween20 just before spraying. The inoculated leaf disks or segments are incubated under defined conditions (temperature, relative humidity, light, etc.) according to the respective test system. A single evaluation of disease level is carried out 3 to 14 days after inoculation, depending on the pathosystem. Percent disease control relative to the untreated check leaf disks or segments is then calculated. General Examples of Liquid Culture Tests in Well Plates:
Example 1: Fungicidal Activity Against Puccinia recondita f. sp. tritici/Wheat/Leaf Disc Preventative (Brown Rust)
Wheat leaf segments cv. Kanzler were placed on agar in multiwell plates (24-well format) and sprayed with the formulated test compound diluted in water. The leaf disks were inoculated with a spore suspension of the fungus 1 day after application. The inoculated leaf segments were incubated at 19C and 75% relative humidity (rh) under a light regime of 12 hours light/12 hours darkness in a climate cabinet and the activity of a compound was assessed as percent disease control compared to untreated when an appropriate level of disease damage appears in untreated check leaf segments (7 to 9 days after application).
(§2) The following compounds at 200 ppm in the applied formulation give at least 80% disease control in this test when compared to untreated control leaf disks under the same conditions, which show extensive disease development.

[2] = system: Puccinia recondita f. sp. tritici; test: Fungicidal activity against Puccinia recondita f. sp. tritici / wheat / leaf disc curative (brown rust); assay type: in vivo; conditions: foliar, 200 ppm in the applied formulation, wheat leaf segments cv. Kanzler, curative (applied 1 day after inoculation), assessed 6 to 8 days after application, read-out: disease control compared to untreated control leaf disks
Method: as §1
Example 2: Fungicidal Activity Against Puccinia recondita f. sp. Tritici/Wheat/Leaf Disc Curative (Brown Rust)
Wheat leaf segments cv. Kanzler are placed on agar in multiwell plates (24-well format). The leaf segments are then inoculated with a spore suspension of the fungus. Plates were stored in darkness at 19° C. and 75% relative humidity. The formulated test compound diluted in water was applied 1 day after inoculation. The leaf segments were incubated at 19° C. and 75% relative humidity under a light regime of 12 hours light/12 hours darkness in a climate cabinet and the activity of a compound was assessed as percent disease control compared to untreated when an appropriate level of disease damage appears in untreated check leaf segments (6 to 8 days after application).
as §2

Phakopsora pachyrhizi = test: Fungicidal activity against Phakopsora pachyrhizi / soybean / leaf disc preventative (Asian soybean rust); assay type: in vivo; conditions: foliar, 200 ppm in the applied formulation, soybean leaf disks, preventative (inoculated one day after application), assessed 12 to 14 days after application, read-out: disease control compared to untreated control leaf disks
Method: as §1
Example 3: Fungicidal Activity Against Phakopsora pachyrhizi/Soybean/Leaf Disc Preventative (Asian Soybean Rust)
Soybean leaf disks are placed on water agar in multiwell plates (24-well format) and sprayed with the formulated test compound diluted in water. One day after application leaf discs are inoculated by spraying a spore suspension on the lower leaf surface. After an incubation period in a climate cabinet of 24-36 hours in darkness at 20° C. and 75% rh leaf disc are kept at 20° C. with 12 h light/day and 75% rh. The activity of a compound is assessed as percent disease control compared to untreated when an appropriate level of disease damage appears in untreated check leaf disks (12 to 14 days after application).
as §2

[3] = system: Glomerella laqenarium (Colletotrichum lagenarium); test: Fungicidal activity against Glomerella lagenarium (Colletotrichum lagenarium) liquid culture / cucumber / preventative (anthracnose); assay type: cell-based; conditions: Colletotrichum orbiculare; 20 ppm in the applied formulation; liquid culture in PDB, 24° C., 3 to 4 days after application; read-out: disease control compared to untreated control (inhibition of growth measured photometrically)
Method: Mycelia fragments or conidia suspensions of a fungus prepared either freshly from liquid cultures of the fungus or from cryogenic storage, are directly mixed into nutrient broth. DMSO solutions of the test compound (max. 10 mg/ml) are diluted with 0.025% Tween20 by a factor of 50 and 10 μl of this solution is pipetted into a microtiter plate (96-well format). The nutrient broth containing the fungal spores/mycelia fragments is then added to give an end concentration of the tested compound. The test plates are incubated in the dark at 24° C. and 96% relative humidity. The inhibition of fungal growth is determined photometrically after 2 to 7 days, depending on the pathosystem, and percent antifungal activity relative to the untreated check is calculated.
Example 4: Fungicidal Activity Against Glomerella laqenarium (Colletotrichum lagenarium) Liquid Culture/Cucumber/Preventative (Anthracnose)
Conidia of the fungus from cryogenic storage are directly mixed into nutrient broth (PDB—potato dextrose broth). After placing a (DMSO) solution of test compound into a microtiter plate (96-well format), the nutrient broth containing the fungal spores is added. The test plates are incubated at 24° C. and the inhibition of growth is measured photometrically 3 to 4 days after application.
The following compounds at 20 ppm in the applied formulation give at least 80% disease control in this test when compared to untreated control under the same conditions, which show extensive disease development.

CC(C)OCCNC(=O)c1ccc(-c2noc(C(F)(F)F)n2)cc1F [Compound 3b.43, 2-fluoro-N-(2-isopropoxyethyl)-4-[5-(trifluoromethyl)-1,2,4-oxadiazol-3-yl]benzamide]
≥ 80%: pest or weed control at 200 ppm [1] | pest or weed control at 200 ppm [2] | pest or weed control at 200 ppm (Phakopsora pachyrhizi) | inhibition at 20 ppm [3]

CCN(C(=O)c1ccc(-c2noc(C(F)(F)F)n2)cc1F)C(C)C [Compound 3b.35, N-ethyl-2-fluoro-N-isopropyl-4-[5-(trifluoromethyl)-1,2,4-oxadiazol-3-yl]benzamide]
≥ 80%: pest or weed control at 200 ppm [1] | pest or weed control at 200 ppm [2] | pest or weed control at 200 ppm (Phakopsora pachyrhizi) | inhibition at 20 ppm [3]

CCOCCNC(=O)c1ccc(-c2noc(C(F)(F)F)n2)cc1F [Compound 3b.39, N-(2-ethoxyethyl)-2-fluoro-4-[5-(trifluoromethyl)-1,2,4-oxadiazol-3-yl]benzamide]
≥ 80%: pest or weed control at 200 ppm [1] | pest or weed control at 200 ppm [2] | pest or weed control at 200 ppm (Phakopsora pachyrhizi) | inhibition at 20 ppm [3]

CCC(COC)NC(=O)c1ccc(-c2noc(C(F)(F)F)n2)cc1 (stereo not shown) [Compound 3a.9, N-[1-(methoxymethyl)propyl]-4-[5-(trifluoromethyl)-1,2,4-oxadiazol-3-yl]benzamide]
≥ 80%: pest or weed control at 200 ppm [1] | pest or weed control at 200 ppm [2] | pest or weed control at 200 ppm (Phakopsora pachyrhizi) | inhibition at 20 ppm [3]

O=C(NCCCCCl)c1ccc(-c2noc(C(F)(F)F)n2)cc1F [Compound 3b.20, N-(4-chlorobutyl)-2-fluoro-4-[5-(trifluoromethyl)-1,2,4-oxadiazol-3-yl]benzamide]
≥ 80%: pest or weed control at 200 ppm [1] | pest or weed control at 200 ppm [2] | pest or weed control at 200 ppm (Phakopsora pachyrhizi) | inhibition at 20 ppm [3]

CC(C)(O)CNC(=O)c1ccc(-c2noc(C(F)(F)F)n2)cc1 [Compound 3a.27, N-(2-hydroxy-2-methyl-propyl)-4-[5-(trifluoromethyl)-1,2,4-oxadiazol-3-yl]benzamide]
≥ 80%: pest or weed control at 200 ppm [1] | pest or weed control at 200 ppm [2] | pest or weed control at 200 ppm (Phakopsora pachyrhizi) | inhibition at 20 ppm [3]

O=C(NCCO)c1ccc(-c2noc(C(F)(F)F)n2)cc1F [Compound 3b.21, 2-fluoro-N-(2-hydroxyethyl)-4-[5-(trifluoromethyl)-1,2,4-oxadiazol-3-yl]benzamide]
≥ 80%: pest or weed control at 200 ppm [1] | pest or weed control at 200 ppm [2] | pest or weed control at 200 ppm (Phakopsora pachyrhizi) | inhibition at 20 ppm [3]

CC(=O)CC(C)(C)NC(=O)c1ccc(-c2noc(C(F)(F)F)n2)cc1 [Compound 3a.16, N-(1,1-dimethyl-3-oxo-butyl)-4-[5-(trifluoromethyl)-1,2,4-oxadiazol-3-yl]benzamide]
≥ 80%: pest or weed control at 200 ppm [1] | pest or weed control at 200 ppm [2] | pest or weed control at 200 ppm (Phakopsora pachyrhizi) | inhibition at 20 ppm [3]

CCCCN(C)C(=O)c1ccc(-c2noc(C(F)(F)F)n2)cc1 [Compound 3a.36, N-butyl-N-methyl-4-[5-(trifluoromethyl)-1,2,4-oxadiazol-3-yl]benzamide]
≥ 80%: pest or weed control at 200 ppm [1] | pest or weed control at 200 ppm [2] | pest or weed control at 200 ppm (Phakopsora pachyrhizi) | inhibition at 20 ppm [3]

CCOC(C)CNC(=O)c1ccc(-c2noc(C(F)(F)F)n2)cc1F (stereo not shown) [Compound 3b.12, N-(2-ethoxypropyl)-2-fluoro-4-[5-(trifluoromethyl)-1,2,4-oxadiazol-3-yl]benzamide]
≥ 80%: pest or weed control at 200 ppm [1] | pest or weed control at 200 ppm [2] | pest or weed control at 200 ppm (Phakopsora pachyrhizi) | inhibition at 20 ppm [3]

CCCN(C)C(=O)c1ccc(-c2noc(C(F)(F)F)n2)cc1 [Compound 3a.33, N-methyl-N-propyl-4-[5-(trifluoromethyl)-1,2,4-oxadiazol-3-yl]benzamide]
≥ 80%: pest or weed control at 200 ppm [1] | pest or weed control at 200 ppm [2] | pest or weed control at 200 ppm (Phakopsora pachyrhizi) | inhibition at 20 ppm [3]

CCC(O)CNC(=O)c1ccc(-c2noc(C(F)(F)F)n2)cc1 (stereo not shown) [Compound 3a.14, N-(2-hydroxybutyl)-4-[5-(trifluoromethyl)-1,2,4-oxadiazol-3-yl]benzamide]
≥ 80%: pest or weed control at 200 ppm [1] | pest or weed control at 200 ppm [2] | pest or weed control at 200 ppm (Phakopsora pachyrhizi) | inhibition at 20 ppm [3]

CN(CCOC(F)F)C(=O)c1ccc(-c2noc(C(F)(F)F)n2)cc1 [Compound 3a.44, N-[2-(difluoromethoxy)ethyl]-N-methyl-4-[5-(trifluoromethyl)-1,2,4-oxadiazol-3-yl]benzamide]
≥ 80%: pest or weed control at 200 ppm [1] | pest or weed control at 200 ppm [2] | pest or weed control at 200 ppm (Phakopsora pachyrhizi) | inhibition at 20 ppm [3]

CC(C)(O)CNC(=O)c1ccc(-c2noc(C(F)(F)F)n2)cc1F [Compound 3b.29, 2-fluoro-N-(2-hydroxy-2-methyl-propyl)-4-[5-(trifluoromethyl)-1,2,4-oxadiazol-3-yl]benzamide]
≥ 80%: pest or weed control at 200 ppm [1] | pest or weed control at 200 ppm [2] | pest or weed control at 200 ppm (Phakopsora pachyrhizi) | inhibition at 20 ppm [3]

CC(O)CNC(=O)c1ccc(-c2noc(C(F)(F)F)n2)cc1 (stereo not shown) [Compound 3a.10, N-(2-hydroxypropyl)-4-[5-(trifluoromethyl)-1,2,4-oxadiazol-3-yl]benzamide]
≥ 80%: pest or weed control at 200 ppm [1] | pest or weed control at 200 ppm [2] | pest or weed control at 200 ppm (Phakopsora pachyrhizi) | inhibition at 20 ppm [3]

CCCCN(C)C(=O)c1ccc(-c2noc(C(F)(F)F)n2)cc1F [Compound 3b.38, N-butyl-2-fluoro-N-methyl-4-[5-(trifluoromethyl)-1,2,4-oxadiazol-3-yl]benzamide]
≥ 80%: pest or weed control at 200 ppm [1] | pest or weed control at 200 ppm [2] | pest or weed control at 200 ppm (Phakopsora pachyrhizi) | inhibition at 20 ppm [3]

C=CCN(CC)C(=O)c1ccc(-c2noc(C(F)(F)F)n2)cc1 [Compound 3a.28, N-allyl-N-ethyl-4-[5-(trifluoromethyl)-1,2,4-oxadiazol-3-yl]benzamide]
≥ 80%: pest or weed control at 200 ppm [1] | pest or weed control at 200 ppm [2] | pest or weed control at 200 ppm (Phakopsora pachyrhizi) | inhibition at 20 ppm [3]

O=C(NCCCCCl)c1ccc(-c2noc(C(F)(F)F)n2)cc1 [Compound 3a.20, N-(4-chlorobutyl)-4-[5-(trifluoromethyl)-1,2,4-oxadiazol-3-yl]benzamide]
≥ 80%: pest or weed control at 200 ppm [1] | pest or weed control at 200 ppm [2] | pest or weed control at 200 ppm (Phakopsora pachyrhizi) | inhibition at 20 ppm [3]

CC(=O)CC(C)(C)NC(=O)c1ccc(-c2noc(C(F)(F)F)n2)cc1F [Compound 3b.15, N-(1,1-dimethyl-3-oxo-butyl)-2-fluoro-4-[5-(trifluoromethyl)-1,2,4-oxadiazol-3-yl]benzamide]
≥ 80%: pest or weed control at 200 ppm [1] | pest or weed control at 200 ppm [2] | pest or weed control at 200 ppm (Phakopsora pachyrhizi) | inhibition at 20 ppm [3]
